According to US7744927B2, “Methods of promoting hematopoietic and mesenchymal cell proliferation and differentiation” (University of Southern California, priority 1997, dated 2010):
Non-standard residues stand in square brackets, D forms with d. No end group written: not given here. Phe(4-NH2) = Nc1ccc(C[C@H](N)C(=O)O)cc1

Assays:
[1] = system: human peripheral blood mononuclear cells (PBMC); assay: Respiratory burst (hydrogen peroxide generation), human PBMC; type: cell-based; conditions: alone and in response to PMA 10 ng/ml; 4 hours exposure
Protocol: The respiratory burst of leukocytes (macrophages and polymorphonuclear neutrophils) is one component of the mediator system used to kill bacteria. As with phagocytosis, the level of this respiratory burst activity in resident macrophages is low. […] Studies were conducted to assess the effect of in vitro exposure of murine or rat peritoneal macrophages and human peripheral blood mononuclear cells (PBMC) to various concentrations of AII on the capacity to generate hydrogen peroxide via the respiratory burst system. For the human studies, five different donors were examined.
The murine or rat peritoneal cells were harvested by lavage with 5-15 ml of cold PBS with 0.5% bovine serum albumin. The human PBMC were harvested by venipuncture from normal human volunteers and isolated from peripheral blood by Ficoll Hypaque density centrifugation. After isolation, the cells were resuspended at 1×10^6 cells/ml and placed at 100 μl per well into 96 well plates. The cells were incubated with various concentrations of AII or AII analogues for 4 hours at 37° C. The cells were then preloaded with a fluorescent probe for hydrogen peroxide, 2,7 dichlorofluorescein acetate, which is nonfluorescent in the absence of hydrogen peroxide. Fifteen minutes later, 10 ng/ml of phorbol myristate acetate (+PMA) or PBS (−PMA) was added to stimulate the production of hydrogen peroxide. One hour after stimulation the level of fluorescence produced was measured on a Cytofluor 2350 multiwell fluorometer.

AT2 receptor = conditions: experimental models tested; cited from earlier work
[2] = system: Rat Peritoneal Macrophages; assay: Phagocytosis of opsonized yeast by rat peritoneal macrophages; type: cell-based, Sprague Dawley rats
Protocol: Resident peritoneal macrophages have very little phagocytic activity. Exposure of macrophages to inflammatory or activating agents will increase this macrophage function. Resident peritoneal macrophages were harvested from C57B1/6 mice or Sprague Dawley rats and resuspended at a concentration of 1×10^6 cells/ml in phosphate buffered saline (PBS). Five separate 0.5 ml cell aliquots were placed on a glass coverslip in a 35 mm petri dish. Prior to incubation, either 0.5 ml of PBS, AII, or AII analogues or fragments at between 1-1000 ug/ml final concentration was added to the individual cover slips. The dishes containing the cover slips were then incubated at 37° C. for 4 hours, after which the cover slips were washed 3 to 6 times with PBS. Opsonized yeast particles (Sigma Chemical Co.) (yeast opsonized with adult serum from the same species as that under study) were added to the cover slips and incubated for 2 hours, after which the cover slips were again washed with PBS and inverted onto a glass slide. The number of macrophages that ingested yeast and the number of yeast per macrophage ingested was then determined microscopically. At least 100 macrophages per coverslip were counted. The data from this study are summarized in Tables 3 and 4 and FIGS. 1 and 2.

[3] = Test of AII fragments for effectiveness (method not described)

Substance | ability to generate hydrogen peroxide (respiratory burst) [1] | binding characteristics (AT2 receptor) | #/Cell ([2]; peptide 100 μg/ml) | % w/Yeast ([2]; peptide 100 μg/ml) | Number of Macrophages with Yeast (Yeast Number) 0 ([2]; peptide 100 μg/ml) | Number of Macrophages with Yeast (Yeast Number) 1-3 ([2]; peptide 100 μg/ml) | Number of Macrophages with Yeast (Yeast Number) 4-6 ([2]; peptide 100 μg/ml) | #/Cell ([2]; peptide 1000 μg/ml) | % w/Yeast ([2]; peptide 1000 μg/ml) | Number of Macrophages with Yeast (Yeast Number) 1-3 ([2]; peptide 1000 μg/ml) | Number of Macrophages with Yeast (Yeast Number) 4-6 ([2]; peptide 1000 μg/ml) | effectiveness [3]
Asp-Arg-Val-Tyr-Ile-His-Pro (DRVYIHP) [AII(1-7)] | an increase in the respiratory burst capacity was observed |  |  |  |  |  |  |  |  |  |  | 
Asp-Arg-Val-Tyr-Ile-Xaa-Pro-Phe (DRVYI[Phe(4-NH2)]PF) [(p-NH2-Phe)6-AII] |  | comparable to AT2 antagonists |  |  |  |  |  |  |  |  |  | 
DRPYIHPF [GSD 24B] | an increase in the respiratory burst capacity was observed |  | 0.58 | 23.1% | 100 | 25 | 5 | 0.18 | 9.1% | 10 | 0 | 
DRVYIHPI [GSD 28] | an increase in the respiratory burst capacity was observed |  | 0.02 | 1.0% | 100 | 1 | 0 |  |  |  |  | 
His-Pro-Phe (HPF) [AII(6-8)] |  |  |  |  |  |  |  |  |  |  |  | found not to be effective
RVYAHPF [GSD 22A] | an increase in the respiratory burst capacity was observed |  | 0.59 | 23.7% | 100 | 26 | 5 | 0.40 | 18.7% | 22 | 1 | 
Tyr-Ile-His-Pro-Phe (YIHPF; printed: Tyr-Ile-His-Pro-Phe) [AII(4-8)] |  |  |  |  |  |  |  |  |  |  |  | found not to be effective
